DBAASP
In brackets after ≈: the same amount, converted by molar mass. Each block holds one molecule with its values, some of them ahead of it.

How the values were obtained:
Assay in all cases: ≥ marks a high value that may be exact or a test limit, other limits are often not marked, values filed in µg/mL are converted to µM
Acinetobacter baumannii = system: Acinetobacter baumannii
[1] = system: Klebsiella pneumoniae ATCC 700603
[2] = system: Staphylococcus aureus ATCC 25923
[3] = system: Escherichia coli ATCC 25922
[4] = system: Pseudomonas aeruginosa ATCC 9027
[5] = system: Staphylococcus aureus ATCC 33591
Bacillus subtilis = system: Bacillus subtilis
Candida albicans = system: Candida albicans
Staphylococcus aureus = system: Staphylococcus aureus
Escherichia coli = system: Escherichia coli
[6] = system: Candida albicans ATCC 10231
[7] = system: Bacillus subtilis ATCC 6633
[8] = system: Staphylococcus aureus ATCC 6538
[9] = system: Candida albicans ATCC 90028
[10] = system: Pseudomonas aeruginosa ATCC 27853
[11] = system: Escherichia coli DH5alpha

Compound: NCCCC[C@H](NC(=O)[C@H](CCCCN)NC(=O)[C@H](Cc1c[nH]c2ccccc12)NC(=O)[C@H](CCCCN)NC(=O)[C@H](Cc1ccccc1)NC(=O)[C@H](CCCN=C(N)N)NC(=O)[C@H](Cc1c[nH]c2ccccc12)NC(=O)[C@@H](N)CCCN=C(N)N)C(=O)O [RWRFKWKK]
- MIC [2]: > 81 µM
- MIC [6]: > 81 µM
- MIC [3]: > 81 µM
- MIC [7]: ≥ 81 µM

Compound: CC[C@H](C)[C@@H]1NC(=O)[C@H](CO)NC(=O)[C@H](CCCCN)NC(=O)[C@H]([C@@H](C)O)NC(=O)[C@H](Cc2c[nH]c3ccccc23)NC(=O)[C@@H](NC(=O)CNC(=O)[C@H](CCCCN)NC(=O)[C@H](CC(C)C)NC(=O)[C@H](C)NC(=O)[C@H](C)N)CSSC[C@@H](C(=O)N[C@@H](Cc2ccccc2)C(=O)NCC(=O)N[C@@H](CCCCN)C(=O)N[C@@H](CCCN=C(N)N)C(=O)O)NC(=O)[C@@H]2CCCN2C(=O)[C@H](CCCCN)NC(=O)[C@@H]2CCCN2C(=O)[C@@H]2CCCN2C1=O [AALKGCWTKSIPPKPCFGKR]
- MIC (Bacillus subtilis): 0.845 µM (≈ 1.85 µg/mL)
- MIC (Candida albicans): 1.1 µM (≈ 2.4 µg/mL)
- MIC (Staphylococcus aureus): 2.66 µM (≈ 5.82 µg/mL)
- MIC (Escherichia coli): 1.47 µM (≈ 3.21 µg/mL)

Compound: CC(C)C[C@H](NC(=O)[C@H](CCCCN)NC(=O)[C@H](CCCCN)NC(=O)[C@H](C)NC(=O)[C@H](CC(C)C)NC(=O)[C@H](CCCCN)NC(=O)[C@H](CCCCN)NC(=O)[C@H](CC(C)C)NC(=O)[C@H](CCCCN)NC(=O)[C@H](CCCCN)NC(=O)[C@H](C)NC(=O)[C@@H](N)Cc1ccccc1)C(N)=O [FAKKLKKLAKKL]
- MIC [8]: 70.6 µM (≈ 99.9 µg/mL)
- MIC [4]: 141 µM (≈ 200 µg/mL)

Compound: C[C@H](NC(=O)[C@H](CCCN=C(N)N)NC(=O)[C@H](CCCN=C(N)N)NC(=O)[C@@H]1CCCN1C(=O)CNC(=O)[C@H](CCCN=C(N)N)NC(=O)[C@H](CCCN=C(N)N)NC(=O)CN)C(=O)N[C@@H](CC(N)=O)C(=O)N[C@@H](CCC(N)=O)C(=O)N[C@@H](CC(N)=O)C(=O)NCC(=O)N[C@H](C(=O)N[C@@H](CCCN=C(N)N)C(=O)N[C@@H](CCCN=C(N)N)C(=O)N[C@@H](CCCN=C(N)N)C(=O)N[C@@H](CCCN=C(N)N)C(=O)N[C@@H](CCCN=C(N)N)C(=O)N[C@@H](CCCN=C(N)N)C(=O)N[C@H](C(N)=O)[C@@H](C)O)[C@@H](C)O [GRRGPRRANQNGTRRRRRRT]
- MIC [2]: 100 µM (≈ 248 µg/mL)
- MIC [3]: 25 µM (≈ 61.9 µg/mL)
- MIC [5]: ≥ 100 µM
- MIC [10]: 25 µM (≈ 61.9 µg/mL)

Compound: CC[C@H](C)[C@H](NC(=O)[C@@H](N)CCCN=C(N)N)C(=O)N[C@@H](Cc1c[nH]c2ccccc12)C(=O)N[C@@H](Cc1ccccc1)C(=O)N[C@@H](CCC(N)=O)C(=O)N[C@@H](CC(N)=O)C(=O)N[C@@H](CCCN=C(N)N)C(=O)N[C@@H](CCCN=C(N)N)C(=O)N[C@@H](CCSC)C(=O)N[C@@H](CCCN=C(N)N)C(=O)N[C@@H](Cc1c[nH]c2ccccc12)C(=O)N[C@@H](CCCN=C(N)N)C(=O)N[C@@H](CCCN=C(N)N)C(N)=O [RIWFQNRRMRWRR]
- MIC [3]: 32 µM (≈ 62.7 µg/mL)
- MIC [5]: ≥ 32 µM

Compound: CC(C)C[C@H](NC(=O)[C@H](CCCCN)NC(=O)[C@H](CCCCN)NC(=O)[C@H](C)NC(=O)[C@H](CC(C)C)NC(=O)[C@H](CCCCN)NC(=O)[C@H](CCCCN)NC(=O)[C@H](CC(C)C)NC(=O)[C@H](CCCCN)NC(=O)[C@H](CCCCN)NC(=O)[C@H](C)NC(=O)[C@H](CC(C)C)NC(=O)[C@H](CCCCN)NC(=O)[C@H](CCCCN)NC(=O)[C@H](C)NC(=O)[C@H](Cc1ccccc1)NC(=O)[C@H](CCCCN)NC(=O)[C@H](CCCCN)NC(=O)[C@H](Cc1ccccc1)NC(=O)[C@H](CC(C)C)NC(=O)[C@H](CCCCN)NC(=O)[C@@H](NC(=O)[C@@H](N)CCCCN)[C@@H](C)O)C(=O)O [KTKLFKKFAKKLAKKLKKLAKKL]
- MIC [8]: 3.66 µM (≈ 10 µg/mL)
- MIC [4]: 36.6 µM (≈ 100 µg/mL)

Compound: N[C@@H](CC(=O)O)C(=O)N[C@@H](Cc1ccc(O)cc1)C(=O)N[C@@H](CC(=O)O)C(=O)N[C@@H](CC(=O)O)C(=O)O [DYDD]
- MIC [6]: 8580 µM (≈ 4520 µg/mL)
- MIC [3]: 34300 µM (≈ 18100 µg/mL)
- MIC [4]: 17200 µM (≈ 9040 µg/mL)

Compound: CC(C)C[C@H](NC(=O)[C@H](C)NC(=O)[C@H](C)NC(=O)[C@H](CCCCN)NC(=O)[C@H](C)NC(=O)[C@H](CC(C)C)NC(=O)[C@H](CCCCN)NC(=O)[C@H](CCCCN)NC(=O)[C@H](C)NC(=O)[C@H](CC(C)C)NC(=O)[C@H](CCCCN)NC(=O)[C@H](CCCCN)NC(=O)[C@H](C)NC(=O)[C@@H](N)Cc1ccccc1)C(N)=O [FAKKLAKKLAKAAL]
- MIC [8]: 6.66 µM (≈ 9.99 µg/mL)
- MIC [4]: 66.6 µM (≈ 99.9 µg/mL)

The remaining lines, values ahead:

- MIC (Acinetobacter baumannii): 8 µM (≈ 13.8 µg/mL)
- MIC [1]: 64 µM (≈ 110 µg/mL)
- MIC [2]: 32 µM (≈ 55.2 µg/mL)
- MIC [3]: 64 µM (≈ 110 µg/mL)
- MIC [4]: 64 µM (≈ 110 µg/mL)
Compound: CC[C@H](C)[C@H](NC(=O)[C@H](CCCN=C(N)N)NC(=O)[C@H](CC(C)C)NC(=O)[C@@H](NC(=O)[C@H](Cc1ccccc1)NC(=O)[C@H](CCCN=C(N)N)NC(=O)[C@H](C)NC(=O)[C@@H](N)CC(C)C)C(C)C)C(=O)N[C@@H](CC(C)C)C(=O)N[C@@H](CCCCN)C(=O)N[C@@H](Cc1ccc(O)cc1)C(=O)NCC(=O)N[C@@H](Cc1ccccc1)C(=O)N[C@@H](CCCCN)C(=O)O [LARFVLRILKYGFK]

- MIC [3]: 32 µM (≈ 71.3 µg/mL)
- MIC [5]: 16 µM (≈ 35.6 µg/mL)
Compound: CC[C@H](C)[C@H](NC(=O)[C@H](CCC(N)=O)NC(=O)[C@H](CC(C)C)NC(=O)[C@H](CCC(N)=O)NC(=O)[C@@H](NC(=O)[C@H](CCCCN)NC(=O)[C@H](Cc1ccccc1)NC(=O)[C@H](Cc1c[nH]c2ccccc12)NC(=O)[C@@H](N)CCCN=C(N)N)[C@@H](C)CC)C(=O)N[C@@H](CCCN=C(N)N)C(=O)N[C@@H](CCCN=C(N)N)C(=O)N[C@@H](Cc1c[nH]c2ccccc12)C(=O)N[C@@H](CCCCN)C(=O)N[C@@H](CC(N)=O)C(=O)N[C@@H](CCCCN)C(=O)N[C@@H](CCCCN)C(N)=O [RWFKIQLQIRRWKNKK]

- MIC (Bacillus subtilis): 9.28 µM (≈ 18.8 µg/mL)
- MIC (Candida albicans): 0.544 µM (≈ 1.1 µg/mL)
- MIC (Staphylococcus aureus): 4.64 µM (≈ 9.37 µg/mL)
- MIC (Escherichia coli): 2.32 µM (≈ 4.68 µg/mL)
Compound: CC[C@H](C)[C@H](NC(=O)CNC(=O)[C@H](CO)NC(=O)[C@H](CC(C)C)NC(=O)[C@H](CC(C)C)NC(=O)CN)C(=O)N[C@@H](CC(C)C)C(=O)NCC(=O)N[C@@H](C)C(=O)NCC(=O)N[C@@H](CCCCN)C(=O)N[C@@H](Cc1cnc[nH]1)C(=O)N[C@H](C(=O)N[C@H](C(=O)N[C@@H](CS)C(=O)NCC(=O)N[C@@H](CC(C)C)C(=O)N[C@@H](CO)C(=O)NCC(=O)N[C@@H](CC(C)C)C(=O)N[C@@H](CCCN=C(N)N)C(=O)O)C(C)C)[C@@H](C)CC [GLLSGILGAGKHIVCGLSGLR]

- MIC (Acinetobacter baumannii): ≥ 64 µM
- MIC [1]: > 64 µM
- MIC [2]: > 64 µM
- MIC [3]: 64 µM (≈ 137 µg/mL)
- MIC [4]: 64 µM (≈ 137 µg/mL)
Compound: CC[C@H](C)[C@H](N)C(=O)N[C@@H](CC(C)C)C(=O)N[C@@H](CCCCN)C(=O)N1CCC[C@H]1C(=O)N[C@@H](CCCCN)C(=O)N[C@@H](CC(C)C)C(=O)N[C@@H](Cc1c[nH]c2ccccc12)C(=O)N[C@@H](CCCCN)C(=O)N[C@@H](CC(C)C)C(=O)N[C@H](C(=O)N[C@H](C(=O)N[C@H](C(=O)N[C@@H](C)C(=O)N[C@@H](CCCN=C(N)N)C(=O)N[C@@H](CCCCN)C(=O)N[C@H](C(=O)N[C@H](C(=O)N[C@@H](CCCCN)C(=O)O)[C@@H](C)CC)[C@@H](C)CC)C(C)C)C(C)C)[C@@H](C)O [ILKPKLWKLTVVARKIIK]

- MIC [9]: ≥ 80 µM
- MIC [2]: 10 µM (≈ 13.8 µg/mL)
- MIC [3]: > 160 µM
Compound: CC[C@H](C)[C@H](NC(=O)[C@@H]1CCCN1C(=O)[C@H](CC(C)C)NC(=O)[C@@H](N)Cc1ccccc1)C(=O)N[C@@H](CC(C)C)C(=O)NCC(=O)N[C@@H](CCCCN)C(=O)N[C@@H](CC(C)C)C(=O)N[C@@H](CC(C)C)C(=O)N[C@@H](CO)C(=O)NCC(=O)N[C@@H](CC(C)C)C(=O)N[C@@H](CC(C)C)C(N)=O [FLPILGKLLSGLL]

- MIC (Candida albicans): 200 µM (≈ 524 µg/mL)
- MIC (Staphylococcus aureus): > 200 µM
- MIC (Escherichia coli): 40 µM (≈ 105 µg/mL)
Compound: CC[C@H](C)[C@H](NC(=O)[C@H](CCCCN)NC(=O)[C@H](CS)NC(=O)[C@H](C)NC(=O)[C@@H](NC(=O)[C@H](Cc1ccccc1)NC(=O)CNC(=O)[C@H](CC(C)C)NC(=O)CNC(=O)[C@@H](NC(=O)[C@H](CCCCN)NC(=O)CNC(=O)[C@H](CC(C)C)NC(=O)[C@H](CC(N)=O)NC(=O)[C@H](CCCCN)NC(=O)[C@H](CC(C)C)NC(=O)[C@@H](NC(=O)CNC(=O)[C@H](CC(C)C)NC(=O)[C@H](CCSC)NC(=O)[C@@H](N)CO)C(C)C)C(C)C)C(C)C)C(=O)N[C@@H](CC(N)=O)C(=O)N[C@@H](CCCCN)C(=O)N[C@@H](CCC(N)=O)C(=O)N[C@@H](CS)C(=O)O [SMLGVLKNLGKVGLGFVACKINKQC]

- MIC [11]: 10 µM (≈ 16.7 µg/mL)
- MIC (Bacillus subtilis): 20 µM (≈ 33.4 µg/mL)
- MIC [2]: 10 µM (≈ 16.7 µg/mL)
- MIC [10]: 30 µM (≈ 50.1 µg/mL)
Compound: CC[C@H](C)[C@H](NC(=O)[C@H](Cc1ccccc1)NC(=O)[C@@H](NC(=O)[C@H](Cc1ccccc1)NC(=O)[C@H](CCCN=C(N)N)NC(=O)[C@H](CCCCN)NC(=O)[C@H](CCCN=C(N)N)NC(=O)[C@H](CCCCN)NC(=O)[C@H](Cc1c[nH]c2ccccc12)NC(=O)[C@H](CC(C)C)NC(=O)[C@@H](NC(=O)[C@@H](N)Cc1ccc(O)cc1)C(C)C)[C@@H](C)CC)C(=O)O [YVLWKRKRFIFI]
